Our source for the IC50 values is ChEMBL document CHEMBL3526080, “In vitro inhibition of the bile salt export pump correlates with risk of cholestatic drug-induced liver injury in humans” (Drug Metab Dispos, 2012).

The IC50 is the point on the concentration scale where inhibition reaches its midpoint.

Test [1] addresses Bile salt export pump (Homo sapiens, UniProt O95342). Kind of test: Inhibition of human BSEP expressed in plasma membrane vesicles of Sf21 cells assessed as inhibition of ATP-dependent [3H]taurocholate uptake. The class given is cell membranes.
For test [2], the target named is Bile salt export pump (Rattus norvegicus, UniProt O70127). In words: Inhibition of Sprague-Dawley rat Bsep expressed in plasma membrane vesicles of Sf21 cells assessed as inhibition of ATP-dependent [3H]taurocholate uptake. It is filed as cell membranes.
Chain of Bile salt export pump (Rattus norvegicus, UniProt O70127) (O70127 whole entry): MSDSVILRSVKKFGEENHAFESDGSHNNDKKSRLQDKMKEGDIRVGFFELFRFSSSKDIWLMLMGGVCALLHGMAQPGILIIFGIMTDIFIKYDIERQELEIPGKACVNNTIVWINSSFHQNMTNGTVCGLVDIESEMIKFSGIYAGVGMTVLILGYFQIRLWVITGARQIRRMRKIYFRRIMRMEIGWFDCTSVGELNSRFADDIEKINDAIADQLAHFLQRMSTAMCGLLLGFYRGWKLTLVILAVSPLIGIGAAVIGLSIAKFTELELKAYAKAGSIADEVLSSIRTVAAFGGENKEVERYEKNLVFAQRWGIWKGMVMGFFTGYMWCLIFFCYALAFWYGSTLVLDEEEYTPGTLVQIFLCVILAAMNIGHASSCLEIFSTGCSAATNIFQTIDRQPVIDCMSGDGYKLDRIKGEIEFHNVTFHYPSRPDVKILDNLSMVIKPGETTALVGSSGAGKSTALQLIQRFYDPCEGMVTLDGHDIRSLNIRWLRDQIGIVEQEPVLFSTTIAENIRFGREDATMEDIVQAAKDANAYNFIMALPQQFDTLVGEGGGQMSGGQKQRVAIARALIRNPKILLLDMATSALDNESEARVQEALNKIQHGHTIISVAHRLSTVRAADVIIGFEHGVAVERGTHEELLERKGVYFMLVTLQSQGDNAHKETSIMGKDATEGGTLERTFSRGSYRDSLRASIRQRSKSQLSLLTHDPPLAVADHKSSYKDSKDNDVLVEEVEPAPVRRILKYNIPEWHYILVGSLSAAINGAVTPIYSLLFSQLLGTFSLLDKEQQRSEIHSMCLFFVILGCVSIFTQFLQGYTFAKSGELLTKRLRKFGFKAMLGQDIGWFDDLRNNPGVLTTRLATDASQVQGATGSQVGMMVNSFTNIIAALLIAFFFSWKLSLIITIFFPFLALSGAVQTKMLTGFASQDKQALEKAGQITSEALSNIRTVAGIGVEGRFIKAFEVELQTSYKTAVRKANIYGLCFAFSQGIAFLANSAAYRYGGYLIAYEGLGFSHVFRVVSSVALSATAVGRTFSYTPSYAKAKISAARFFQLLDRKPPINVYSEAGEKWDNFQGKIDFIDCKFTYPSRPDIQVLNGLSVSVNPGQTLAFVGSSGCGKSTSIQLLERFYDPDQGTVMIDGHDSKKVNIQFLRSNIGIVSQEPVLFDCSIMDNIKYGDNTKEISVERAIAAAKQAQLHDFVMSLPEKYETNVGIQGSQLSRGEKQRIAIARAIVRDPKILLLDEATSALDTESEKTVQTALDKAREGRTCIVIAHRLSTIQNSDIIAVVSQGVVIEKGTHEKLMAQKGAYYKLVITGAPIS

Chain of Bile salt export pump (Homo sapiens, UniProt O95342) (O95342 whole entry): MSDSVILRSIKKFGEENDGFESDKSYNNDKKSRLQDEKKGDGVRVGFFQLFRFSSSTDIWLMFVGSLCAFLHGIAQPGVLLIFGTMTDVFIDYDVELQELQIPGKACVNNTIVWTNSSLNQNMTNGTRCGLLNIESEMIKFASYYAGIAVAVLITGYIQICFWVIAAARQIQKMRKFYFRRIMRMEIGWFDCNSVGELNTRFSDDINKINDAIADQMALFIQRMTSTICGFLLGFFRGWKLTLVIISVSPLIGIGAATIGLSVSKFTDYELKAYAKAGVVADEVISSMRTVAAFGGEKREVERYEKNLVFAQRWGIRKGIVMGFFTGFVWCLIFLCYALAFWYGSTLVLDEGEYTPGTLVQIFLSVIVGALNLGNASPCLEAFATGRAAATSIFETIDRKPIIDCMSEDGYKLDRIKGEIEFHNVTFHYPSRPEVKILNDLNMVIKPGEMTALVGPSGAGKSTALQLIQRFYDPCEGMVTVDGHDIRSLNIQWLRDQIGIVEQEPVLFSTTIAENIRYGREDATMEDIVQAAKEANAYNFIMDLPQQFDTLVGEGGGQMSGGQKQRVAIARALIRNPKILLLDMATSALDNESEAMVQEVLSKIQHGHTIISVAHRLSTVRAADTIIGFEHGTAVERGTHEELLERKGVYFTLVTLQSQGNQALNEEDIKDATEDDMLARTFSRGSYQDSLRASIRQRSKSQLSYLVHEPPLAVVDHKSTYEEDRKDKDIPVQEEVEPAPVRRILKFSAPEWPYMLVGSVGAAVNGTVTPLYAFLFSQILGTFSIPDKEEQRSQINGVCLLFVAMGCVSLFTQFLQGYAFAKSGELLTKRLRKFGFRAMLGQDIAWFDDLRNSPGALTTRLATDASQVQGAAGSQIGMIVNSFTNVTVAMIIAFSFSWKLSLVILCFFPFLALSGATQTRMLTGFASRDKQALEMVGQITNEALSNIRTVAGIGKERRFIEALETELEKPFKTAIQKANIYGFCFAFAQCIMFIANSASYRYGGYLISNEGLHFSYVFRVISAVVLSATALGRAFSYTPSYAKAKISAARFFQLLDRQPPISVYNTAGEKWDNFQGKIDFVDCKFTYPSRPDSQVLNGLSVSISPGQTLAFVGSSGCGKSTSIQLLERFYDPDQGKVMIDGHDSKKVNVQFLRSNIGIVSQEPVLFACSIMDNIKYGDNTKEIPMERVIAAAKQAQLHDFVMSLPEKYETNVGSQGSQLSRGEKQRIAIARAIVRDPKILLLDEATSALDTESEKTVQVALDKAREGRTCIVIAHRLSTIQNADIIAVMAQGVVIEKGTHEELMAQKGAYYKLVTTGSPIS

`O=C(O)Cc1csc(-c2ccc(Cl)cc2)n1` [FENCLOZIC ACID]: the concentration for half-maximal inhibition (IC50) in test [1] and in test [2] was above 1000 µM each time. For `O=c1[nH]c(=O)n([C@@H]2O[C@H](CO)[C@@H](O)[C@@H]2F)cc1I` [FIALURIDINE], the IC50 in test [1] and in test [2] was above 1000 µM in each case. Consider `CC1=C(CC(=O)O)c2cc(F)ccc2/C1=C\c1ccc([S+](C)[O-])cc1` (centres undefined), for which the IC50 in test [1] came to 226 µM; in test [2] it was 87.5 µM.

As to `CCCN(CCC)S(=O)(=O)c1ccc(C(=O)O)cc1` [PROBENECID], the IC50 in test [1] is 565 µM; in test [2], 510 µM.

On to `CC(C)C(=O)Nc1ccc([N+](=O)[O-])c(C(F)(F)F)c1` [FLUTAMIDE], for which the IC50 is 143 µM in test [1] and 78.7 µM in test [2].

Turning to `Cc1onc(-c2c(Cl)cccc2Cl)c1C(=O)N[C@@H]1C(=O)N2[C@@H]1SC(C)(C)[C@@H]2C(=O)O` [DICLOXACILLIN], the 50% inhibitory concentration (IC50) in test [1] was 69.7 µM; in test [2], 111 µM. Turning to `N[C@@H]1CON=C1O` [CYCLOSERINE], the IC50 in test [1] and in test [2] was above 1000 µM throughout. Regarding `NNC(=O)c1ccncc1` [ISONIAZID], the IC50 in test [1] and in test [2] was above 1000 µM each time. For `CN(CCOc1ccc(CC2SC(=O)NC2=O)cc1)c1ccccn1` (centres undefined) [ROSIGLITAZONE], the values for the IC50 in test [1] and in test [2] were 6.4 µM and 40 µM, respectively. For the compound `NNc1nnc(NN)c2ccccc12` [DIHYDRALAZINE], the IC50 in test [1] and in test [2] was above 1000 µM each time. As to `CC1(C)S[C@@H]2[C@H](NC(=O)[C@H](N)c3ccc(O)cc3)C(=O)N2[C@H]1C(=O)O` [AMOXICILLIN], the IC50 in test [1] and in test [2] was above 1000 µM each time. Consider `O=C(O)c1cc(-c2ccccc2)nc2ccccc12` [CINCHOPHEN], for which the values for the IC50 in test [1] and in test [2] were 695 µM and 296 µM, respectively. Taken in the same sequence, the figures for `CC(c1cc2ccccc2s1)N(O)C(N)=O` (centres undefined) [ZILEUTON] were above 1000 µM and 564 µM.

As for `O=NN(CCCl)C(=O)NCCCl` [CARMUSTINE], the IC50 in test [1] and in test [2] was above 1000 µM throughout. Take `CCN1CCCC1CNC(=O)c1cc(S(N)(=O)=O)ccc1OC` (centres undefined) [SULPIRIDE]: the IC50 in test [1] and in test [2] was above 1000 µM in each case. Turning to `CC(C)(S)[C@@H](N)C(=O)O` [PENICILLAMINE], the IC50 in test [1] and in test [2] was above 1000 µM each time.

Turning to `CN1CCN(C2=Nc3cc(Cl)ccc3Nc3ccccc32)CC1` [CLOZAPINE], the figures for the IC50 in test [1] and in test [2] were 126 µM and 197 µM, respectively. For `O=C(O)c1ccccc1O` [SALICYLIC ACID], the concentration for half-maximal inhibition (IC50) in test [1] and in test [2] was above 1000 µM in each case. Regarding `CC(=O)N1CCN(c2ccc(OCC3COC(Cn4ccnc4)(c4ccc(Cl)cc4Cl)O3)cc2)CC1` (centres undefined) [KETOCONAZOLE], in test [2], the IC50 turned out to be 15.6 µM. For the compound `CC(C)NNC(=O)c1ccncc1` [IPRONIAZID], the IC50 in test [1] and in test [2] was above 1000 µM throughout. `O=C(O)c1cc(=O)c2c(OCC(O)COc3cccc4oc(C(=O)O)cc(=O)c34)cccc2o1` [CROMOLYN]: the IC50 in test [1] and in test [2] was above 1000 µM each time. Consider `CCCCNC(=O)NS(=O)(=O)c1ccc(C)cc1` [TOLBUTAMIDE], for which the IC50 in test [1] and in test [2] was above 1000 µM throughout. For `O=C(C1CCCCC1)N1CC(=O)N2CCc3ccccc3C2C1` (centres undefined) [PRAZIQUANTEL], the IC50 amounted to 96.8 µM in test [1] and 153 µM in test [2]. Taken in the same sequence, the figures for `CC(C(=O)O)c1ccc2oc(-c3ccc(Cl)cc3)nc2c1` (centres undefined) [BENOXAPROFEN] were 175 µM and 99.1 µM. Consider `CN1CCC(=C2c3ccccc3CC(=O)c3sccc32)CC1` [KETOTIFEN], for which the values for the IC50 in test [1] and in test [2] were 738 µM and above 1000 µM, respectively. Turning to `CCC(=O)O[C@]1(C(=O)CCl)[C@@H](C)C[C@H]2[C@@H]3CCC4=CC(=O)C=C[C@]4(C)[C@@]3(F)[C@@H](O)C[C@@]21C` [CLOBETASOL PROPIONATE], the IC50 in test [1] was 8.5 µM; in test [2], 35 µM.

Take `NS(=O)(=O)c1cc(C(=O)O)c(NCc2ccco2)cc1Cl` [FUROSEMIDE]: the IC50 in test [2] is above 1000 µM. Same read-out and setting: next, `Cn1cnc([N+](=O)[O-])c1Sc1ncnc2nc[nH]c12` [AZATHIOPRINE]: above 1000 µM.

With `COc1ccc(C(=O)NCc2cccnc2)cc1C(=O)NCc1cccnc1` [PICOTAMIDE], the IC50 in test [1] amounted to 441 µM; in test [2], 637 µM. Taken in the same sequence, the figures for `CC(=O)Nc1ccc(O)cc1` [ACETAMINOPHEN] were above 1000 µM and above 1000 µM. The matching figures for `NCCc1ccc(O)c(O)c1` [DOPAMINE]: above 1000 µM and above 1000 µM. The matching figures for `CCc1nn(CCCN2CCN(c3cccc(Cl)c3)CC2)c(=O)n1CCOc1ccccc1` [NEFAZODONE]: 4.2 µM and 17.4 µM. `CCCNC(=O)NS(=O)(=O)c1ccc(Cl)cc1` [CHLORPROPAMIDE]: the IC50 in test [1] and in test [2] was above 1000 µM in each case. As to `Cc1onc(-c2c(F)cccc2Cl)c1C(=O)N[C@@H]1C(=O)N2[C@@H]1SC(C)(C)[C@@H]2C(=O)O` [FLOXACILLIN], the IC50 in test [1] was determined as 209 µM; in test [2], 429 µM. The matching figures for `C[N+](C)(C)CC(=O)O` [BETAINE]: above 1000 µM and above 1000 µM. With `O=C1CN(/N=C/c2ccc([N+](=O)[O-])o2)C(=O)N1` [NITROFURANTOIN], in test [2], the IC50 is above 1000 µM. Same read-out and setting: next, `CNC(=C[N+](=O)[O-])NCCSCc1ccc(CN(C)C)o1` [RANITIDINE]: above 1000 µM. With `Nc1nc2c(ncn2COCCO)c(=O)[nH]1` [ACYCLOVIR], the IC50 in test [1] and in test [2] was above 1000 µM in each case.

For the compound `CNC(=O)Oc1ccc2c(c1)[C@]1(C)CCN(C)[C@@H]1N2C` [PHYSOSTIGMINE], the IC50 in test [1] and in test [2] was above 1000 µM each time. Consider `CN(C)CCN(Cc1cccs1)c1ccccn1`, for which the IC50 in test [1] and in test [2] was above 1000 µM throughout. Take `Cc1onc(-c2ccccc2Cl)c1C(=O)N[C@@H]1C(=O)N2[C@@H]1SC(C)(C)[C@@H]2C(=O)O` [CLOXACILLIN]: the IC50 in test [1] came to 220 µM; in test [2], 377 µM.

On to `O=C(O)[C@H]1/C(=C/CO)O[C@@H]2CC(=O)N21` [CLAVULANIC ACID], for which the IC50 in test [1] and in test [2] was above 1000 µM in each case. Turning to `O=C(OCC(O)CO)c1ccccc1Nc1ccnc2cc(Cl)ccc12` (centres undefined) [GLAFENINE], the figures for the IC50 in test [1] and in test [2] were 22.3 µM and 32.2 µM, respectively. Taken in the same sequence, the figures for `CO[C@H]1/C=C/O[C@@]2(C)Oc3c(C)c(O)c4c(O)c(cc(O)c4c3C2=O)NC(=O)/C(C)=C\C=C\[C@H](C)[C@H](O)[C@@H](C)[C@@H](O)[C@@H](C)[C@H](OC(C)=O)[C@@H]1C` [RIFAMYCIN] were 6.3 µM and 3.1 µM. The matching figures for `Cc1oncc1C(=O)Nc1ccc(C(F)(F)F)cc1` [LEFLUNOMIDE]: 177 µM and 112 µM. The matching figures for `NC(=O)OCC(COC(N)=O)c1ccccc1` [FELBAMATE]: above 1000 µM and above 1000 µM. Turning to `COc1ccc(Cl)cc1C(=O)NCCc1ccc(S(=O)(=O)NC(=O)NC2CCCCC2)cc1` [GLYBURIDE], in test [2], the IC50 was 2.8 µM. Still for that read-out and setting: the result for `Nc1ccc(S(=O)(=O)c2ccc(N)cc2)cc1` [DAPSONE] reads above 1000 µM.
